Values joined by “and” are separate entries in the source; they are usually repeats but may differ in a detail not shown here. Equal entries are not always repeated.
Molecular target: Cytochrome P450 3A4 (Homo sapiens, UniProt P08684)
Assay: For testosterone hydroxylase activity the final microsomal protein concentration was 0.5 mg/mL, the substrate concentration was 50 uM and the LC-MS internal standard was D7-labeled 6beta -hydroxytestosterone.

Chain of Cytochrome P450 3A4 (P08684 whole entry): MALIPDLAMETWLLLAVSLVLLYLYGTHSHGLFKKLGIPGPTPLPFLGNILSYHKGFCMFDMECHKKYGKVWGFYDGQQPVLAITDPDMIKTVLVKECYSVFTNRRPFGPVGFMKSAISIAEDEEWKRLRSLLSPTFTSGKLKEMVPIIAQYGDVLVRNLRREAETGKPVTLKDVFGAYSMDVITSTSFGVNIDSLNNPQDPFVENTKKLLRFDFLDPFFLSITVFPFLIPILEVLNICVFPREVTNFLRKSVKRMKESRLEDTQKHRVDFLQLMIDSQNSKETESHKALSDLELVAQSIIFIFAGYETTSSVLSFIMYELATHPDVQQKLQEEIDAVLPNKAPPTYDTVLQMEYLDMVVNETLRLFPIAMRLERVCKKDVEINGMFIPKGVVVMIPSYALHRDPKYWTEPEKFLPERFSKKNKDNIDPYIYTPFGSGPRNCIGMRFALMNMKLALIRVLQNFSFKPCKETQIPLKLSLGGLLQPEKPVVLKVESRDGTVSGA

## CC(C)c1nc(CN(C)C(=O)NC2(C(=O)N[C@H](CC[C@H](Cc3ccccc3)NC(=O)OCc3cncs3)Cc3ccccc3)CCNCC2)cs1
  IC50: 150 nM and 340 nM
